Here are results for 39 compounds from ChEMBL document CHEMBL3425401, “Identification of 8-aminoadenosine derivatives as a new class of human concentrative nucleoside transporter 2 inhibitors” (ACS Med Chem Lett, 2015).

Bounds are passed on as bounds.

The target in one test is T1, Sodium/nucleoside cotransporter 2 (Homo sapiens) (UniProt O43868).
T1 sequence (whole entry): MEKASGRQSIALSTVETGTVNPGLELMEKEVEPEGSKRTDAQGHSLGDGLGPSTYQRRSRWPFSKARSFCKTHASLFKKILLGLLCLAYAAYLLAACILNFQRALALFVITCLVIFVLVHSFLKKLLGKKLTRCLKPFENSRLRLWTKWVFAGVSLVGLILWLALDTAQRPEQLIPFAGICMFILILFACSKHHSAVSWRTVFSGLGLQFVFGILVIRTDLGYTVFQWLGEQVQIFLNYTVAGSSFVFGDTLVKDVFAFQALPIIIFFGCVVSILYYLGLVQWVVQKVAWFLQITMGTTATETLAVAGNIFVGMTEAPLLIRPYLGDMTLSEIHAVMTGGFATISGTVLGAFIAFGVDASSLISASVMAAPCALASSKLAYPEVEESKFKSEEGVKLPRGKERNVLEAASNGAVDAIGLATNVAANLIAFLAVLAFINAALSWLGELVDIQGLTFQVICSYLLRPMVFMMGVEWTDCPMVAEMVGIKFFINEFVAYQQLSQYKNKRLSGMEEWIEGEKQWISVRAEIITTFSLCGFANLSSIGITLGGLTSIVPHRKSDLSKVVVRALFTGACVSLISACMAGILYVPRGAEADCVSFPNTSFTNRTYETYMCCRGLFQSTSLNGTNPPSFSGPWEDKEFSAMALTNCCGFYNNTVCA
Briefly: Inhibition of human CNT2 expressed in COS7 cells assessed as reduction in sodium-dependent [14C]-inosine uptake at 100 uM in presence of Na+ by liquid scintillation counting method. The test is classed as cell-based. The note with it: COS-7.
Take `Nc1ncnc2c1nc(NCCc1ccccc1)n2[C@@H]1O[C@H](CO)[C@@H](O)[C@H]1O`: the inhibition turned out to be 39%.
With `Nc1ncnc2c1nc(NCCCc1ccccc1)n2[C@@H]1O[C@H](CO)[C@@H](O)[C@H]1O`, the inhibition stood at 26%.
The same measure, in the same setting: with `Nc1ncnc2c1nc(SCc1ccccc1)n2[C@@H]1O[C@H](CO)[C@@H](O)[C@H]1O` the figure was under 5%; with `C[C@@H](Nc1nc2c(N)ncnc2n1[C@@H]1O[C@H](CO)[C@@H](O)[C@H]1O)c1ccccc1`, under 5%; with `CN(Cc1ccccc1)c1nc2c(N)ncnc2n1[C@@H]1O[C@H](CO)[C@@H](O)[C@H]1O`, under 5%.
As for `C[C@H](Nc1nc2c(N)ncnc2n1[C@@H]1O[C@H](CO)[C@@H](O)[C@H]1O)c1ccccc1`, the inhibition is under 5%.
For `O=c1[nH]c(=O)n([C@H]2C[C@H](O)[C@@H](CO)O2)cc1F` [FLOXURIDINE], the inhibition came to 17%.
Same read-out and setting: as for `Nc1ncnc2c1nc(Nc1ccccc1)n2[C@@H]1O[C@H](CO)[C@@H](O)[C@H]1O`, the figure is 36%; as for `Nc1ncnc2c1nc(NCc1ccccc1)n2[C@@H]1O[C@H](CO)[C@@H](O)[C@H]1O`, 58%; as for `O=C(CCc1ccc(O)cc1)c1c(O)cc(O)cc1O[C@@H]1O[C@H](CO)[C@@H](O)[C@H](O)[C@H]1O` [PHLORIZIN], 14%.
With `O=c1cc(-c2cccc(O)c2)oc2c(O)c(O)ccc12`, the inhibition is under 5%.
In the case of `Nc1ncnc2c1nc(CCc1ccccc1)n2[C@@H]1O[C@H](CO)[C@@H](O)[C@H]1O`, the inhibition is under 5%.
Same read-out and setting: as for `Nc1ncnc2c1nc(OCc1ccccc1)n2[C@@H]1O[C@H](CO)[C@@H](O)[C@H]1O`, the figure is under 5%.

Another test concerns the target T1, Sodium/nucleoside cotransporter 2 (Homo sapiens). In words: Potency index, ratio of IC50 for 2'-deoxy-5-fluorouridine to IC50 for test compound against human CNT2 expressed in COS7 cells by sodium-dependent [14C]-inosine uptake assay. The test is classed as cell-based. The note with it: COS-7.
Turning to `Nc1ncnc2c1nc(NCc1ccc(-c3ccccc3)cc1)n2[C@@H]1O[C@H](CO)[C@@H](O)[C@H]1O`, the Ratio IC50 was determined as 1500.

The next test has the same target. Briefly: Potency index, ratio of IC50 for phlorizin to IC50 for test compound against human CNT2 expressed in COS7 cells by sodium-dependent [14C]-inosine uptake assay. The conditions noted are these: COS-7. The test is classed as cell-based.
For `Nc1ncnc2c1nc(NCc1ccc(-c3ccccc3)cc1)n2[C@@H]1O[C@H](CO)[C@@H](O)[C@H]1O`, the Ratio IC50 is 1500.

The target in another test is T2, Sodium/nucleoside cotransporter 2 (Homo sapiens, UniProt O43868).
T2 sequence (O43868 whole entry): T1 sequence (whole entry)
Briefly: Inhibition of human CNT2 expressed in COS7 cells assessed as reduction in sodium-dependent [14C]-inosine uptake in presence of Na+ by liquid scintillation counting method. The test is classed as cell-based, COS-7.
Settings: not given
Consider `Nc1ncnc2c1nc(NCCc1ccccc1)n2[C@@H]1O[C@H](CO)[C@@H](O)[C@H]1O`, for which the IC50 is 233 µM.
Consider `CCCCCC(=O)OC[C@H]1O[C@@H](n2cnc3c(N)ncnc32)[C@H](O)[C@@H]1O`, for which the 50% inhibitory concentration (IC50) is over 100 µM.
On the same count and under the same terms, as for `Nc1ncnc2c1ncn2[C@@H]1O[C@H](COC(=O)OCc2ccccc2)[C@@H](O)[C@H]1O`, the figure is over 100 µM; as for `Nc1ncnc2c1nc(NCCCc1ccccc1)n2[C@@H]1O[C@H](CO)[C@@H](O)[C@H]1O`, 536 µM; as for `CCNC(=O)OC[C@H]1O[C@@H](n2cnc3c(N)ncnc32)[C@H](O)[C@@H]1O`, over 100 µM.
As for `Nc1ncnc2c1nc(NCc1ccc(Cl)cc1)n2[C@@H]1O[C@H](CO)[C@@H](O)[C@H]1O`, the IC50 turned out to be 11 µM.
On the same count and under the same terms, with `Nc1ncnc2c1ncn2[C@@H]1O[C@H](COC(=O)NCc2ccccc2)[C@@H](O)[C@H]1O` the figure was over 100 µM.
As for `CCCCCNC(=O)OC[C@H]1O[C@@H](n2cnc3c(N)ncnc32)[C@H](O)[C@@H]1O`, the IC50 is over 100 µM.
The same measure, in the same setting: with `Nc1ncnc2c1nc(NCc1ccc(-c3ccccc3)cc1)n2[C@@H]1O[C@H](CO)[C@@H](O)[C@H]1O` the figure was 0.64 µM.
Take `COC(=O)OC[C@H]1O[C@@H](n2cnc3c(N)ncnc32)[C@H](O)[C@@H]1O`: the IC50 is over 100 µM.
Same read-out and setting: as for `CCCCCOC(=O)OC[C@H]1O[C@@H](n2cnc3c(N)ncnc32)[C@H](O)[C@@H]1O`, the figure is over 100 µM; as for `Nc1ncnc2c1nc(NCc1cccc(Cl)c1)n2[C@@H]1O[C@H](CO)[C@@H](O)[C@H]1O`, 5.4 µM.
Consider `CC(=O)OC[C@H]1O[C@@H](n2cnc3c(N)ncnc32)[C@H](O)[C@@H]1O`, for which the 50% inhibitory concentration (IC50) was over 100 µM.
Same read-out and setting: with `Nc1ncnc2c1nc(NCc1cccc3ccccc13)n2[C@@H]1O[C@H](CO)[C@@H](O)[C@H]1O` the figure was 5.7 µM; with `COc1ccccc1CNc1nc2c(N)ncnc2n1[C@@H]1O[C@H](CO)[C@@H](O)[C@H]1O`, over 100 µM.
The same measure, in the same setting: with `Cc1ccccc1CNc1nc2c(N)ncnc2n1[C@@H]1O[C@H](CO)[C@@H](O)[C@H]1O` the figure was 65 µM.
Turning to `CNC(=O)OC[C@H]1O[C@@H](n2cnc3c(N)ncnc32)[C@H](O)[C@@H]1O`, the IC50 was over 100 µM.
Still for that read-out and setting: as for `Cc1cccc(CNc2nc3c(N)ncnc3n2[C@@H]2O[C@H](CO)[C@@H](O)[C@H]2O)c1`, the figure is 19 µM.
On the same count and under the same terms, as for `Nc1ncnc2c1nc(NCc1ccc3ccccc3c1)n2[C@@H]1O[C@H](CO)[C@@H](O)[C@H]1O`, the figure is 5.3 µM.
As to `O=c1[nH]c(=O)n([C@H]2C[C@H](O)[C@@H](CO)O2)cc1F` [FLOXURIDINE], the half-maximal inhibitory concentration (IC50) is over 1000 µM.
The same measure, in the same setting: with `Nc1ncnc2c1nc(Nc1ccccc1)n2[C@@H]1O[C@H](CO)[C@@H](O)[C@H]1O` the figure was 289 µM; with `Cc1ccc(CNc2nc3c(N)ncnc3n2[C@@H]2O[C@H](CO)[C@@H](O)[C@H]2O)cc1`, 11 µM; with `Nc1ncnc2c1nc(NCc1cccc(-c3ccccc3)c1)n2[C@@H]1O[C@H](CO)[C@@H](O)[C@H]1O`, 21 µM.
Same read-out and setting: with `Nc1ncnc2c1nc(NCc1ccccc1)n2[C@@H]1O[C@H](CO)[C@@H](O)[C@H]1O` the figure was 52 µM.
On to `CCOC(=O)OC[C@H]1O[C@@H](n2cnc3c(N)ncnc32)[C@H](O)[C@@H]1O`, for which the IC50 is over 100 µM.
Take `CCC(=O)OC[C@H]1O[C@@H](n2cnc3c(N)ncnc32)[C@H](O)[C@@H]1O`: the IC50 was over 100 µM.
The same measure, in the same setting: as for `Nc1ncnc2c1nc(NCc1ccccc1Cl)n2[C@@H]1O[C@H](CO)[C@@H](O)[C@H]1O`, the figure is 5.7 µM; as for `Nc1ncnc2c1ncn2[C@@H]1O[C@H](COC(=O)Cc2ccccc2)[C@@H](O)[C@H]1O`, over 100 µM.
On the same count and under the same terms, as for `O=C(CCc1ccc(O)cc1)c1c(O)cc(O)cc1O[C@@H]1O[C@H](CO)[C@@H](O)[C@H](O)[C@H]1O` [PHLORIZIN], the figure is over 1000 µM; as for `O=c1cc(-c2cccc(O)c2)oc2c(O)c(O)ccc12`, over 1000 µM; as for `COc1ccc(CNc2nc3c(N)ncnc3n2[C@@H]2O[C@H](CO)[C@@H](O)[C@H]2O)cc1`, 36 µM.
On the same count and under the same terms, with `Nc1ncnc2c1nc(NCc1ccccc1-c1ccccc1)n2[C@@H]1O[C@H](CO)[C@@H](O)[C@H]1O` the figure was over 100 µM.
As to `COc1cccc(CNc2nc3c(N)ncnc3n2[C@@H]2O[C@H](CO)[C@@H](O)[C@H]2O)c1`, the IC50 was 13 µM.

The next test has as its target T1, Sodium/nucleoside cotransporter 2 (Homo sapiens). Briefly: Potency index, ratio of IC50 for 7,8,3'-trihydroxyflavone to IC50 for test compound against human CNT2 expressed in COS7 cells by sodium-dependent [14C]-inosine uptake assay. The test is classed as cell-based. The note with it: COS-7.
Take `Nc1ncnc2c1nc(NCc1ccc(-c3ccccc3)cc1)n2[C@@H]1O[C@H](CO)[C@@H](O)[C@H]1O`: the Ratio IC50 amounted to 1500.

The next test shares this target. Briefly: Inhibition of human CNT2 expressed in COS7 cells assessed as reduction in sodium-dependent [14C]-inosine uptake at 1000 uM in presence of Na+ by liquid scintillation counting method. The note with it: COS-7. The test is classed as cell-based.
On to `O=c1[nH]c(=O)n([C@H]2C[C@H](O)[C@@H](CO)O2)cc1F` [FLOXURIDINE], for which the inhibition was under 50%.
Still for that read-out and setting: as for `O=C(CCc1ccc(O)cc1)c1c(O)cc(O)cc1O[C@@H]1O[C@H](CO)[C@@H](O)[C@H](O)[C@H]1O` [PHLORIZIN], the figure is under 50%; as for `O=c1cc(-c2cccc(O)c2)oc2c(O)c(O)ccc12`, under 50%.

In general, inhibition refers to how much of the control response was suppressed. A word on the IC50: it is the concentration at which inhibition is half-maximal.
